Legend:
Format in all cases: in vivo
[1] = Experiment 1 sensory evaluation of “boosting of flavor” (cyclic dipeptides, coriander); conditions: for “boosting of flavor” Average: cyclic dipeptide aqueous solution (concentration as in heat-treated coriander) at final 0.2% (w/w) in reduced-sodium curry roux dispersion, score 1-5; for “boosting of flavor” Evaluation: cyclic dipeptide aqueous solution at final 0.2% (w/w) in reduced-sodium curry roux dispersion, class of average score
Procedure: Flour roux was prepared by putting 20 g of flour and 30 g of beef tallow in a pan, then heating with stirring at 120° C. To this flour roux were added 10 g of sodium chloride, 10 g of sugar, 10 g of cornstarch, 5 g of curry powder and 15 g of other seasoning ingredients (vegetable and fruit extracts, yeast extract and seafood extract), and after heat-treatment to 105° C., the mixture was cooled and solidified, to form a block of common curry roux.
The sodium chloride equivalent per 100 g of this curry roux was 10.6 g.
Reduced-sodium curry roux was prepared according to the same procedure, except that the amount of sodium chloride was reduced to 7 g from the amount in the common curry roux in (1).
The sodium chloride equivalent per 100 g of this reduced-sodium curry roux was 7.7 g.
Out of the cyclic dipeptides included in the heat-treated coriander prepared in 1.1. described above, which were confirmed to be increased in 1.2. above, an aqueous solution of the respective 14 cyclic dipeptides shown in the table described below was prepared. The concentration of the cyclic dipeptide in each aqueous solution was set to be equal to its concentration in the heat-treated coriander prepared in 1.1. described above, which was estimated from the ratio of the peak area of the cyclic dipeptide to the peak area of the internal standard (47 μg/g L-lysine-^13C6 monohydrochloride) confirmed in 1.2. described above.
Two dispersions of 44 g of the reduced-sodium curry roux in (2) dispersed in 300 g of hot water were prepared.
To one of them was added the heat-treated coriander or the powdered unheated coriander prepared in 1.1. described above, or the cyclic dipeptide aqueous solution (corresponding to the heat-treated coriander) prepared in (3) above, so that the final concentration was 0.2% (w/w), and a sensory evaluation was carried out.
Forty-four grams of the common curry roux in (1) was dispersed in 300 g of hot water.
The dispersion of reduced-sodium curry roux dispersed in hot water and the dispersion of common curry roux dispersed in hot water were used as comparative controls, and the strength of the flavor was evaluated by four evaluators on the basis of the following evaluation criteria from the viewpoint of “boosting of flavor.” The term “boosting of flavor” in this experiment is an effect concerted by the combination of sodium chloride and other foodstuffs in curry roux, and is an aspect of “saltiness.” Thus, the “flavor” in this experiment can be also expressed as “saltiness.”
The average of the evaluated scores was defined as “F” when it was 1.0 or lower, “C” when it was 1.1 or higher and 1.9 or lower, “B” when it was 2.0 or higher and 2.5 or lower, “A” when it was 2.6 or higher and 2.9 or lower, and “AA” when it was 3.0 or higher.

[2] = Experiment 6 sensory evaluation of cyclic dipeptides, “top sharp saltiness”
Method in brief: (§1)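 Reduced-sodium curry roux (44 g in 300 g hot water) was spiked with cyclic dipeptide solutions matching heat-treated coriander or paprika levels, at 0.5% or 1.0% (w/w) final. Three evaluators scored each sample against unspiked reduced-sodium and common roux. Mean scores were graded F to AA.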

[3] = Experiment 6 sensory evaluation of cyclic dipeptides, “boosting of last flavor (aftertaste)”
Method in brief: as §1

[4] = Experiment 6 sensory evaluation of cyclic dipeptides, “middle fullness (enhanced thickness)”
Method in brief: as §1

[5] = Additive amount coriander 0.5% (heat-treated coriander equivalent aqueous solution, final 0.5% (w/w)), reduced-sodium curry roux
[6] = Additive amount coriander 0.5%, reduced-sodium curry roux
[7] = heat-treated coriander equivalent aqueous solution of cyclic dipeptide, final 1.0% (w/w) in reduced-sodium curry roux dispersion
[8] = heat-treated coriander equivalent aqueous solution of cyclic dipeptide, final 1.0% (w/w) in reduced-sodium curry roux dispersion, 3 evaluators
[9] = Additive amount paprika 0.5% (heat-treated paprika equivalent aqueous solution, final 0.5% (w/w)), reduced-sodium curry roux
[10] = Additive amount paprika 0.5%, reduced-sodium curry roux
[11] = heat-treated paprika equivalent aqueous solution of cyclic dipeptide, final 1.0% (w/w) in reduced-sodium curry roux dispersion
[12] = heat-treated paprika equivalent aqueous solution of cyclic dipeptide, final 1.0% (w/w) in reduced-sodium curry roux dispersion, 3 evaluators

Substance	“boosting of flavor” Average [1] [points]	“boosting of flavor” Evaluation [1]	Top sharp saltiness Average [2, 5] [points]	Top sharp saltiness Evaluation [2, 6]	Top sharp saltiness Evaluation [2, 7]	Top sharp saltiness Average [2, 8] [points]	Bosting of last flavor Average [3, 6] [points]	Bosting of last flavor Evaluation [3, 6]	Bosting of last flavor Evaluation [3, 7]	Bosting of last flavor Average [3, 8] [points]	Middle fullness Average [4, 6] [points]	Middle fullness Evaluation [4, 6]	Middle fullness Evaluation [4, 7]	Middle fullness Average [4, 8] [points]	Top sharp saltiness Average [2, 9] [points]	Top sharp saltiness Evaluation [2, 10]	Top sharp saltiness Evaluation [2, 11]	Top sharp saltiness Average [2, 12] [points]	Bosting of last flavor Average [3, 10] [points]	Bosting of last flavor Evaluation [3, 10]	also measured
cyclic (Leu/Ile-Val) [Coriander ID 42]	2.0	B (“B” when it was 2.0 or higher and 2.5 or lower)	2.5	B (“B” when it was 2.0 or higher and 2.5 or lower)	B (“B” when it was 2.0 or higher and 2.5 or lower)	2.0	3.0	AA (“AA” when it was 3.0 or higher)	A (“A” when it was 2.6 or higher and 2.9 or lower)	2.7	2.8	A (“A” when it was 2.6 or higher and 2.9 or lower)	A (“A” when it was 2.6 or higher and 2.9 or lower)	2.7	–	–	–	–	–	–	–
cyclic (Ala-Leu/Ile) [Coriander ID 32]	2.8	A (“A” when it was 2.6 or higher and 2.9 or lower)	2.1	B (“B” when it was 2.0 or higher and 2.5 or lower)	B (“B” when it was 2.0 or higher and 2.5 or lower)	2.5	2.1	B (“B” when it was 2.0 or higher and 2.5 or lower)	AA (“AA” when it was 3.0 or higher)	3.2	2.2	B (“B” when it was 2.0 or higher and 2.5 or lower)	A (“A” when it was 2.6 or higher and 2.9 or lower)	2.8	–	–	–	–	–	–	–
cyclic (Thr-Pro) [Coriander ID 14]	3.3	AA (“AA” when it was 3.0 or higher)	–	–	–	–	–	–	–	–	–	–	–	–	2.2	B (“B” when it was 2.0 or higher and 2.5 or lower)	B (“B” when it was 2.0 or higher and 2.5 or lower)	2.0	2.2	B (“B” when it was 2.0 or higher and 2.5 or lower)	“boosting of flavor” in words ([1]; added to reduced-sodium curry roux dispersion, compared with no addition, unheated coriander or common curry roux): comparable flavor to that of the dispersion of common curry roux; Bosting of last flavor Evaluation [3, 11]: B (“B” when it was 2.0 or higher and 2.5 or lower); Bosting of last flavor Average [3, 12]: 2.5 points; Middle fullness Average [4, 10]: 2.0 points; Middle fullness Evaluation [4, 10]: B (“B” when it was 2.0 or higher and 2.5 or lower); Middle fullness Evaluation [4, 11]: B (“B” when it was 2.0 or higher and 2.5 or lower); Middle fullness Average [4, 12]: 2.5 points
cyclic (Ala-Pro) [Coriander ID 23]	2.0	B (“B” when it was 2.0 or higher and 2.5 or lower)	–	–	–	–	–	–	–	–	–	–	–	–	2.3	B (“B” when it was 2.0 or higher and 2.5 or lower)	A (“A” when it was 2.6 or higher and 2.9 or lower)	2.7	2.2	B (“B” when it was 2.0 or higher and 2.5 or lower)	Bosting of last flavor Evaluation [3, 11]: AA (“AA” when it was 3.0 or higher); Bosting of last flavor Average [3, 12]: 3.0 points; Middle fullness Average [4, 10]: 2.2 points; Middle fullness Evaluation [4, 10]: B (“B” when it was 2.0 or higher and 2.5 or lower); Middle fullness Evaluation [4, 11]: AA (“AA” when it was 3.0 or higher); Middle fullness Average [4, 12]: 3.0 points
cyclic (Phe-Pro) [Coriander ID 40]	2.8	A (“A” when it was 2.6 or higher and 2.9 or lower)	–	–	–	–	–	–	–	–	–	–	–	–	2.5	B (“B” when it was 2.0 or higher and 2.5 or lower)	A (“A” when it was 2.6 or higher and 2.9 or lower)	2.7	2.3	B (“B” when it was 2.0 or higher and 2.5 or lower)	Bosting of last flavor Evaluation [3, 11]: AA (“AA” when it was 3.0 or higher); Bosting of last flavor Average [3, 12]: 3.0 points; Middle fullness Average [4, 10]: 2.3 points; Middle fullness Evaluation [4, 10]: B (“B” when it was 2.0 or higher and 2.5 or lower); Middle fullness Evaluation [4, 11]: AA (“AA” when it was 3.0 or higher); Middle fullness Average [4, 12]: 3.2 points
cyclic (Arg-Pro) [Coriander ID 45]	2.0	B (“B” when it was 2.0 or higher and 2.5 or lower)	2.0	B (“B” when it was 2.0 or higher and 2.5 or lower)	C (“C” when it was 1.1 or higher and 1.9 or lower)	1.8	2.8	A (“A” when it was 2.6 or higher and 2.9 or lower)	B (“B” when it was 2.0 or higher and 2.5 or lower)	2.2	2.5	B (“B” when it was 2.0 or higher and 2.5 or lower)	B (“B” when it was 2.0 or higher and 2.5 or lower)	2.0	–	–	–	–	–	–	–
cyclic (Pro-Met) [Coriander ID 53]	2.3	B (“B” when it was 2.0 or higher and 2.5 or lower)	3.0	AA (“AA” when it was 3.0 or higher)	AA (“AA” when it was 3.0 or higher)	3.0	3.0	AA (“AA” when it was 3.0 or higher)	AA (“AA” when it was 3.0 or higher)	3.8	3.2	AA (“AA” when it was 3.0 or higher)	AA (“AA” when it was 3.0 or higher)	3.0	–	–	–	–	–	–	–
cyclic (Phe-Thr) [Coriander ID 37]	–	–	–	–	–	–	–	–	–	–	–	–	–	–	1.8	C (“C” when it was 1.1 or higher and 1.9 or lower)	B (“B” when it was 2.0 or higher and 2.5 or lower)	2.3	2.7	A (“A” when it was 2.6 or higher and 2.9 or lower)	Bosting of last flavor Evaluation [3, 11]: B (“B” when it was 2.0 or higher and 2.5 or lower); Bosting of last flavor Average [3, 12]: 2.3 points; Middle fullness Average [4, 10]: 2.5 points; Middle fullness Evaluation [4, 10]: B (“B” when it was 2.0 or higher and 2.5 or lower); Middle fullness Evaluation [4, 11]: B (“B” when it was 2.0 or higher and 2.5 or lower); Middle fullness Average [4, 12]: 2.2 points

From patent US20260231994A1, “TASTE-ENHANCING COMPOSITION, METHOD FOR PRODUCING SAME, FOOD PRODUCT, AND METHOD FOR ENHANCING TASTE OF FOOD PRODUCT” (HOUSE FOODS GROUP INC., priority 2023, published 2026)
